Source: PMC11945475, “Nasal Administration of a Nanoemulsion Based on Methyl Ferulate and Eugenol Encapsulated in Chitosan Oleate: Uptake Studies in the Central Nervous System” (Pharmaceutics, 2025)
Read-outs that look alike come from different tables or passages of the source.

How the values were obtained:
[1] = system: RPMI 2650 cells
Method: RPMI 2650 cells were used to evaluate in vitro the possible CS-OA NE cytotoxicity as well as Fer-Me and eugenol cell uptake.
RPMI 2650 cells were cultured on 75 cm^2 polystyrene cell culture flasks in Advanced Minimum Essential Medium (A-MEM), which was supplemented with 10% fetal bovine serum (FBS), 2 mM L-glutamine, 100 IU/mL penicillin, and 100 μg/mL streptomycin. The cells were maintained in a humidified atmosphere containing 5% CO2 at 37 °C. Cells were split twice using trypsin-EDTA at 37 °C before being seeded and allowed to grow to approximately 90% confluence for 3-(4,5-dimethylthiazol-2-yl)-2,5-diphenyltetrazolium (MTT) assays and uptake studies. Cell counting was performed using Scepter™ 2.0 handheld automated cell counter (Merck Millipore, Milan, Italy).
RPMI 2650 cells were seeded in a 12-well plate at a density of 8 × 10^4 cells/well containing 2 mL of culture A-MEM. […] The corresponding solution of pure compounds (approximated to 250 µM and 600 µM concentrations of Fer-Me and eugenol, respectively), and raw Fer-Me (corresponding to a 250 µM solution) added directly to the wells as powder, were used as comparison. In particular, 2 mL of diluted CS-OA NE or the corresponding solution of pure compounds was added to the test wells, and the plate was incubated for pre-determined interval times (10, 30, and 60 min) in a humidified 5% CO2 atmosphere at 37 °C. As for raw Fer-Me incubation, 0.1 mg was accurately weighed (analytical balance Sartorius CP 225D), added to each well containing 2 mL of complete A-MEM, and incubated at 37 °C in an orbital shaker for the same pre-determined interval times above indicated. All media were removed at the end of the incubation. […] After thawing, the lysate was centrifuged twice (16,000× g for 10 min) and the supernatant was immediately injected into the HPLC apparatus (20 μL) to quantify Fer-Me and eugenol (see below). The final number of cells was evaluated on untreated wells after their trypsinization and counted using the Scepter^TM 2.0 automated cell counter (Merck Millipore, Milan, Italy). Each reported value represents the mean of three independent incubation experiments expressed as nanomoles of compounds for 10^6 cells. The uptake efficiencies were calculated as the compound amount quantified in cell lysate 10 min after the onset of the incubation compared to the initial compound amount incubated in cell media (%). […]
The quantification of eugenol and Fer-Me was performed by using a modular HPLC system composed of a pump (model LC-40D), DAD detector (model SPD-M40, Shimadzu, Kyoto, Japan), as well as an injection valve with a 20 μL sample loop (model 7725; Rheodyne, IDEX, Torrance, CA, USA). […]

[2] = In vitro drug release from CS-OA NE (dialysis tubing); type: physicochemical; conditions: PBS pH 6.2, 32 °C
Method: The membrane was immersed in 50 mL of PBS (pH 6.2) at 32 ± 2 °C. The release medium was kept under constant magnetic stirring. Aliquots (1 mL) were withdrawn at predetermined intervals ranging from 15 min to 4 h and replaced with an equal volume of fresh PBS. The Fer-Me and eugenol released were quantified using the HPLC method.

[3] = Encapsulation efficiency (ultrafiltration method, HPLC); type: physicochemical; conditions: CS-OA NE, ultrafiltration 50K MWCO
Method: EE% was calculated by Equation (2):(2) EE%= total drug amount in CS-OA NE - drug amount in external phase/total drug amount in CS-OA NE × 100

[4] = for remaining percentage (residual % content) in NE: 672 h; for content in CS-OA NE used for cellular and in vivo studies / loading in NE: CS-OA NE; for final concentration in NE: loaded in CS-OA NE, immediately after preparation, four batches
Method: The eugenol and Fer-Me quantification was performed using an HPLC apparatus, coupled with a UV-Vis Variable Wavelength Detector equipped with a deuterium lamp with a wavelength accuracy of ±1 nm (Agilent 1100 Series, model G1314A, Santa Clara, CA, USA). The mobile phase was constituted by a mixture of CH3CN and H2O 38:62 (v/v) acidified with formic acid at pH 3.25, the flow rate was maintained at 1 mL/min, and separations were performed at room temperature on a 150 mm × 4.6 mm, […]. SUPELCOSIL^TM LC-18 endcapped silica column (Supelco®, Merck, Milan, Italy). Eugenol was detected at a wavelength of 210 nm, while Fer-Me was detected at 320 nm. The injection volume was 20 µL for each sample. […] An ANOVA was performed to assess the feasibility of averaging the peak area values across three calibration curves for both the analytes. […] Both standard curve and NE samples were injected after dilution in a mixture of mobile phase and acetate buffer (5 mM); every analysis on each sample was done in triplicate.
The yield of the process was verified by quantifying by HPLC analysis Fer-Me and eugenol loaded into the CS-OA NEs immediately after preparation and after 1, 2, and 4 weeks of storage at 4 °C. […] Fer-Me and eugenol were quantified by the HPLC method into the external aqueous phase, passing through the membrane as permeate.

In the case of `COC(=O)/C=C/c1ccc(O)c(OC)c1` [Fer-Me, methyl ferulate], the “uptake efficiency at 10 min” value [1] is reported as 0.80 ± 0.12%, the “in vitro release from CS-OA NE” value ([2]; 30 min) is reported as 24.9% and the “in vitro release from CS-OA NE” value ([2]; 240 min) is reported as 96.9%. For the same compound, the “EE% (encapsulation efficiency)” value [3] was 90.2%, the “remaining percentage (residual % content) in NE” value [4] was “about 81%” and the “content in CS-OA NE used for cellular and in vivo studies” value [4] was “about 5 mM”. For the same compound, the “loading in NE” value [4] was “about 1 mg/mL” and the “final concentration in NE” value [4] was 123.0 ± 0.2 µg per 100 µL of NE.
With `C=CCc1ccc(O)c(OC)c1` [eugenol] the intracellular amount ([1]; human, 10 min, 600 µM) was 60.80 ± 5.09 nmol/10^6 cells, the “uptake efficiency at 10 min” value ([1]; human, 10 min, 600 µM) was 0.77 ± 0.10% and the intracellular amount ([1]; human, 60 min, 600 µM) was 57.41 ± 2.80 nmol/10^6 cells. The “in vitro release from CS-OA NE” value ([2]; 30 min) was 25.2%, the “in vitro release from CS-OA NE” value ([2]; 240 min) was 97.5% and the “EE% (encapsulation efficiency)” value [3] was 87.9%. The “remaining percentage (residual % content) in NE” value [4] was “about 71%”, the “content in CS-OA NE used for cellular and in vivo studies” value [4] was roughly 12 mM and the “loading in NE” value [4] was roughly 2 mg/mL. The “final concentration in NE” value [4] was 260.0 ± 0.5 µg per 100 µL of NE.
